Entries after “also recorded” stand apart in the source; their conditions may differ.
Legend:
KRAS G12C [1] = tested on: T1, KRAS G12C; test: Protein-Probe thermal stability assay; assay type: binding, human; conditions: KRAS G12C 50 nM; 1 µM ARS-1620; 0 mM MgCl2
T1 construct: GG-Hs.KRAS4b (2-188) G12C; His6-MBP (N, cleaved yes); made in house; host or cells: E. coli

KRAS WT [2] = tested on: T2, KRAS WT; test: SYPRO Orange thermal ramping assay; assay type: binding, human; conditions: 10 µM KRAS WT, 20 µM compound
T2 construct: His6-MBP (N, cleaved yes); made in house; host or cells: E. coli
Experimental: (§1) SYPRO Orange and ANS assays were performed using a one-step protocol, where the samples (8 µL) and SYPRO Orange/ANS solution (12 µL) were combined prior to the first heating step. The samples were incubated for 3 min at each temperature, followed by fluorescence signal measurement. SYPRO Orange was used at 5× (stock 5000×) and ANS at 10 µM final concentration.

KRAS G12C [3] = tested on: T1, KRAS G12C; test: Protein-Probe thermal stability assay; assay type: binding, human; conditions: for concentration of saturated stabilization / ΔTm: 50 nM KRAS G12C; for ΔTm: 5 µM inhibitor, saturated
Experimental: All Protein-Probe assays were performed using a sample volume of 8 µL and a two-step assay protocol. […] Assays were performed in a sample buffer containing 10 mM HEPES (pH 7.5), 0.001% Triton X-100 and 20 mM NaCl and the buffer was supplemented with 0–10 mM MgCl2, 0–1 mM CaCl2, or 0–1 mM EDTA, depending on the assay. In all thermal stability assays, samples were preincubated at RT for 10 min (nucleotides) or 30 min (inhibitors) prior to thermal measurements. […] At each temperature, samples were incubated for 3 min before the Protein-Probe solution was added, and the TRL-signals at 620 nm were monitored at RT. […]
(§2) All inhibitor assays were performed with a buffer containing 1 mM MgCl2. […]

KRAS G12C [4] = target: T3, KRAS G12C (Homo sapiens, UniProt P01116, G12C); test: Competitive Protein-Probe thermal stability assay with DARPin K13; assay type: binding; conditions: 50 nM KRAS G12C, 50 nM K13; 2 µM inhibitor
T3 construct: GG-Hs.KRAS4b (2-188) G12C; His6-MBP (N, cleaved yes); made in house; host or cells: E. coli

KRAS G12C [5] = tested on: T1, KRAS G12C; test: SYPRO Orange / ANS thermal ramping assay; assay type: binding, human; conditions: 10 µM KRAS G12C, 20 µM inhibitor, double transitions
Experimental: as §1

KRAS WT [6] = tested on: T2, KRAS WT; test: Protein-Probe thermal stability assay; assay type: binding, human
Experimental: (§3) All Protein-Probe assays were performed using a sample volume of 8 µL and a two-step assay protocol. Detection was performed at room temperature (RT) by adding 65 µL Protein-Probe solution: 4 µM HIDC (1,1,3,3,3′,3′-hexamethylindodicarbocyanine iodide) and 1–1.5 nM Eu^3+-labeled peptide probe (NH2-[…]). Assays were performed in a sample buffer containing 10 mM HEPES (pH 7.5), 0.001% Triton X-100 and 20 mM NaCl and the buffer was supplemented with 0–10 mM MgCl2, 0–1 mM CaCl2, or 0–1 mM EDTA, depending on the assay. In all thermal stability assays, samples were preincubated at RT for 10 min (nucleotides) or 30 min (inhibitors) prior to thermal measurements. Depending on the studied protein, thermal ramping was performed up to 95 °C, using 5 °C intervals. At each temperature, samples were incubated for 3 min before the Protein-Probe solution was added, and the TRL-signals at 620 nm were monitored at RT.
(§4) In addition, KRAS WT was monitored in a sample buffer supplemented with 0–10 mM MgCl2 or 0–1 mM CaCl2.
[…] KRAS WT (50 nM) was also monitored with 10 µM GDP in a buffer without MgCl2 or supplemented with 0–1 mM CaCl2 or 1 mM EDTA. HRAS (2 µM), NRAS (2 µM), RhoA (2 µM), and Gαi (50 nM) were monitored with 100 µM GDP, GTP, or ATP in buffers with or without 1 mM MgCl2 and 1 mM EDTA. In addition, melting curves for KRAS WT (50 nM) were measured with GTP analogs GTPγS, GMPPNP, and GMPPCP (0–300 µM), and GMP (0–1000 µM) in the presence of 1 mM MgCl2.
as §2

Gαi = test: Protein-Probe thermal stability assay; assay type: binding; conditions: 100 µM GDP or GTP
Experimental: as §3, §4
(§5) KRAS G13D (50 nM) was monitored in the presence of 0–900 nM GDP, and KRAS WT, G13D, G12D, and Q61R (50 nM) were monitored with 10 and/or 100 µM GDP, GTP, and ATP in buffer supplemented with 1 mM MgCl2. KRAS WT (50 nM) was also monitored with 10 µM GDP in a buffer without MgCl2 or supplemented with 0–1 mM CaCl2 or 1 mM EDTA. HRAS (2 µM), NRAS (2 µM), RhoA (2 µM), and Gαi (50 nM) were monitored with 100 µM GDP, GTP, or ATP in buffers with or without 1 mM MgCl2 and 1 mM EDTA. In addition, melting curves for KRAS WT (50 nM) were measured with GTP analogs GTPγS, GMPPNP, and GMPPCP (0–300 µM), and GMP (0–1000 µM) in the presence of 1 mM MgCl2.

KRAS WT [7] = target: T4, KRAS WT (Homo sapiens, UniProt P01116); test: QRET nucleotide exchange assay, SOScat induced; assay type: biochemical; conditions: 15 nM KRAS
T4 construct: GG-Hs.KRAS4b (2-188), GG-Hs.KRAS4b (2-188) G12C; His6-MBP (N, cleaved yes); made in house; host or cells: E. coli

KRAS Q61R = tested on: T5, KRAS Q61R; test: Protein-Probe thermal stability assay; assay type: binding, human; conditions: KRAS Q61R 50 nM
T5 construct: GG-Hs.KRAS4b (2-188) Q61R; His6-MBP (N, cleaved yes); made in house; host or cells: E. coli
Experimental: as §3, §4, §5
(§6) Assays were performed using three DARPins alone or in combination with small molecular inhibitors. […] The thermal curves were monitored after an additional 30 min incubation at RT.

KRAS G13D [8] = tested on: T6, KRAS G13D; test: Protein-Probe thermal stability assay; assay type: binding, human; conditions: KRAS G13D 50 nM
T6 construct: GG-Hs.KRAS4b (2-188) G13D; His6-MBP (N, cleaved yes); made in house; host or cells: E. coli
Experimental: as §3, §4, §5, §6

KRAS G12D = test: Protein-Probe thermal stability assay; assay type: binding, human; conditions: Table S1; KRAS G12D 50 nM; MgCl2 1 mM, GDP 10 mM as headed
Experimental: as §3, §4, §5
All inhibitor assays were performed with a buffer containing 1 mM MgCl2.
as §6

KRAS G13D [9] = tested on: T6, KRAS G13D; test: SYPRO Orange thermal ramping assay; assay type: binding, human; conditions: KRAS G13D 3 µM, 1 mM MgCl2, GDP 1 µM, ATP 1 mM
Experimental: as §1
Thermal stability curves for KRAS WT, G12C, G13D, and Q61R (0–30 µM) were monitored both with SYPRO Orange and ANS in an assay buffer with or without 1 mM MgCl2. In addition, HRAS, NRAS, KRAS V14I, RhoA, and Gαi were studied at 10 µM concentration. KRAS G13D (3 µM) was assayed with SYPRO Orange in thermal ramping in combination with 0–1000 µM GDP, 1000 µM GTP, and 1000 µM ATP in a buffer supplemented with 1 mM MgCl2. Additionally, 10 µM HRAS, NRAS, KRAS V14I, Ac-KRAS iMet-KRAS, RhoA, and Gαi were studied without additional nucleotides or with 10 or 100 µM GDP/GTP in an assay buffer supplemented with 1 mM MgCl2 or 1 mM EDTA.

RhoA = tested on: T7, RhoA; test: Protein-Probe thermal stability assay; assay type: binding; conditions: Table S1; RhoA 1 µM; additive concentrations not given (100 µM GDP/GTP)
T7 construct: and RhoA (1-182) were gen-; His6-MBP (N, cleaved yes); made in house; host or cells: E. coli
Experimental: as §3, §4
as §5, with “HRAS (2 µM), NRAS (2 µM), RhoA (2 µM), and Gαi (50 nM) were monitored with 100 µM GDP, GTP, or ATP in buffers with or without 1 mM MgCl2 and 1 mM EDTA.” left out

[10] = Table S1, EDTA 0.5 mM, MgCl2 1 mM, GDP 10 mM, GTP 10 µM as headed

C=CC(=O)N1CCN(c2ncnc3c(F)c(-c4c(O)cccc4F)c(Cl)cc23)CC1 [ARS-1620]
thermal stabilization (KRAS G12C [1]): diminished the thermal stability effect; also recorded: required Mg^2+ to stabilize | effect on thermal stability (KRAS WT [2]): Neither compound altered | concentration of saturated stabilization (KRAS G12C [3]): 5 µM | ΔTm (KRAS G12C [3]): 18 °C | thermal stabilization (KRAS G12C [3]; KRAS G12C 50 nM, 1 µM ARS-1620, 1 mM MgCl2): thermally stabilizes | thermal stability increase in the presence of K13 (KRAS G12C [4]): no thermal stability increase | maximal thermal stabilization (KRAS G12C [5]): ~13 °C

Nc1nc2c(ncn2[C@@H]2O[C@H](COP(=O)(O)OP(=O)(O)O)[C@@H](O)[C@H]2O)c(=O)[nH]1 [GDP, guanosine-5’-diphosphate]
Tm of nucleotide-preloaded KRAS (KRAS WT [6]; KRAS 50 nM preloaded with the nucleotide, unit not given, in °C (unit assumed)): 60.4 ± 0.2 | concentration at which KRAS was stabilized (KRAS WT [6]; KRAS WT 50 nM, 1 mM MgCl2): 10000 nM | ΔTm (KRAS WT [6]; KRAS WT 50 nM, 10 µM GDP in 1 mM MgCl2): 7.6 °C | ΔTm (KRAS WT [6]; KRAS WT 50 nM, 10 µM GDP in the presence of 1 mM EDTA): 11.3 °C | Tm (KRAS WT [6]; KRAS WT 50 nM, 10 µM GDP with 0.1 mM Ca2+, unit not given, in °C (unit assumed)): 61.2 ± 0.9 | Tm (KRAS WT [6]; KRAS WT 50 nM, 10 µM GDP with 1 mM Ca2+, unit not given, in °C (unit assumed)): 61.8 ± 0.6 | Thermal Stability (°C) (KRAS WT [6]; Table S1, KRAS WT 50 nM, additive as headed: EDTA 0.5 mM, MgCl2 1 mM, GDP 10 mM, GTP 10 µM, GTPγS 10 µM, GMP-PNP 300 µM, GMP-PCP 300 µM, GMP 1 mM): 68.0 ± 0.5 °C | max ΔTm (Gαi; with Mg2+): ≤ 1.0 °C | max ΔTm (Gαi; without Mg2+): ≤ 3.3 °C | KRAS binding (KRAS WT [7]; Fig. 3A legend, SOScat 10 nM): < 15 nM | EC50 (KRAS WT [7]; nucleotide titration, SOScat 5 nM (Table S2), 10 nM (Fig. 3 legend)): 11.9 ± 0.7 nM | stabilization by GDP (KRAS Q61R; 10 µM GDP): not stabilized; also recorded: no change in Tm | Thermal Stability (°C) (KRAS Q61R; [10]): 71.3 ± 0.9 °C | shift of Tm (KRAS G13D [8]; 10 µM GDP): over 10 °C | GDP concentration at which stabilization saturates (KRAS G13D [8]; GDP titration 0–0.9 mM): approximately 300 µM | Thermal Stability (°C) (KRAS G13D [8]; [10]): 60.5 ± 0.2 °C | Thermal Stability (°C) (KRAS G12D): 67.6 ± 0.4 °C | stabilization (KRAS G13D [9]): no KRAS G13D stabilization | Thermal Stability (°C) (RhoA): 70.1 ± 1.1 °C

C=CC(=O)N1CC(N2CCN(C(=O)CNc3cc(C4(C)CC4)c(Cl)cc3O)CC2)C1 [ARS-853]
effect on thermal stability (KRAS WT [2]): Neither compound altered | concentration of saturated stabilization (KRAS G12C [3]): 5 µM | ΔTm (KRAS G12C [3]): 16 °C | thermal stability increase in the presence of K13 (KRAS G12C [4]): no thermal stability increase | maximal thermal stabilization (KRAS G12C [5]): ~13 °C
